Reference: PMC4184702 (Pharmacology Research & Perspectives, 2014)
pKi: −log10 of the molar value. Entries after “also recorded” stand apart in the source; their conditions may differ.

Columns and labels:
[1] = target: T1, KOR: Kappa Opioid Receptor (Homo sapiens, UniProt P41145); experiment: PDSP primary binding, KOR; details: n = 4, read-out: Inhibition (primary binding competition efficacy), KOR
T1 construct: purchased NIMH Psychoactive Drug Screening Program (PDSP)
Procedure: (§1) For experimental details, please refer to the Psychoactive Drug Screening Program (PDSP) web site http://pdsp.med.unc.edu/.
(§2) ^a The default concentration for primary binding experiments is 10 µM (n = 4). ^b Negative inhibition represents a stimulation of binding. ^c BZPR: Benzodiazepine Receptors (rat brain site). ^d DOR: Delta Opioid Receptor; KOR: Kappa Opioid Receptor; MOR: Mu Opioid Receptor. ^e DAT: Dopamine Transporter; NET: Norepinephrine Transporter; SERT: Serotonin Transporter. ^f NMDA: N-methyl-D-aspartate receptor.

M5 muscarinic receptor = target: T2, M5 muscarinic receptor (Homo sapiens, UniProt P08912); experiment: PDSP primary binding, M5; details: n = 4, read-out: Inhibition (primary binding competition efficacy), M5
T2 construct: purchased NIMH Psychoactive Drug Screening Program (PDSP)
Procedure: as §1, §2

5-HT3 = target: T3, 5-HT3 (Homo sapiens, UniProt P46098); experiment: PDSP primary binding, 5-HT3; details: n = 4, read-out: Inhibition (primary binding competition efficacy), 5-HT3
T3 construct: purchased NIMH Psychoactive Drug Screening Program (PDSP)
Procedure: as §1, §2

C57/BL6J mice = experiment: Preliminary acute maximum tolerated dose study; type: in vivo, mouse
5-HT1A = target: T4, 5-HT1A (Homo sapiens, UniProt P08908); experiment: PDSP primary binding, 5-HT1A; details: n = 4, read-out: Inhibition (primary binding competition efficacy), 5-HT1A
T4 construct: purchased NIMH Psychoactive Drug Screening Program (PDSP)
Procedure: as §1, §2

[2] = target: T5, NET: Norepinephrine Transporter (Homo sapiens, UniProt P23975); experiment: PDSP primary binding, NET; details: n = 4, read-out: Inhibition (primary binding competition efficacy), NET
T5 construct: purchased NIMH Psychoactive Drug Screening Program (PDSP)
Procedure: as §1, §2

5-HT2B = target: T6, 5-HT2B (Homo sapiens, UniProt P41595); experiment: PDSP primary binding, 5-HT2B; details: n = 4, read-out: Inhibition (primary binding competition efficacy), 5-HT2B
T6 construct: purchased NIMH Psychoactive Drug Screening Program (PDSP)
Procedure: as §1, §2

α2A adrenergic receptor = target: T7, α2A adrenergic receptor (Homo sapiens, UniProt P08913); experiment: PDSP primary binding, α2A; details: n = 4, read-out: Inhibition (primary binding competition efficacy), α2A
T7 construct: purchased NIMH Psychoactive Drug Screening Program (PDSP)
Procedure: as §1, §2

[3] = Metabolic stability, cryopreserved hepatocytes, human; type: in vitro ADME; details: 1.0E-06 M, 2 h
5-HT1D = target: T8, 5-HT1D (Homo sapiens, UniProt P28221); experiment: PDSP primary binding, 5-HT1D; details: n = 4, read-out: Inhibition (primary binding competition efficacy), 5-HT1D
T8 construct: purchased NIMH Psychoactive Drug Screening Program (PDSP)
Procedure: as §1, §2

H2 histamine receptor = target: T9, H2 histamine receptor (Homo sapiens, UniProt P25021); experiment: PDSP primary binding, H2; details: n = 4, read-out: Inhibition (primary binding competition efficacy), H2
T9 construct: purchased NIMH Psychoactive Drug Screening Program (PDSP)
Procedure: as §1, §2

CB1 = target: T10, CB1 (Homo sapiens, UniProt P21554); experiment: PDSP primary binding, CB1; details: n = 4, read-out: Inhibition (primary binding competition efficacy), CB1
T10 construct: purchased NIMH Psychoactive Drug Screening Program (PDSP)
Procedure: as §1, §2

5-HT1E = target: T11, 5-HT1E (Homo sapiens, UniProt P28566); experiment: PDSP primary binding, 5-HT1E; details: n = 4, read-out: Inhibition (primary binding competition efficacy), 5-HT1E
T11 construct: purchased NIMH Psychoactive Drug Screening Program (PDSP)
Procedure: as §1, §2

[4] = target: β2-containing nAChRs (α2β2, α3β2, α4β2, and α4β2*); design: method as in Yu et al. [2012]; details: ref Yu et al. [2012], read-out: Ki values range at β2-containing nAChRs; cited from earlier work
[5] = system: five different cytochrome P450 (CYP450) enzymes (2D6, 3A, 1A, 2C9, and 2C19); experiment: CYP450 inhibition panel (summary); type: in vitro ADME, human; details: in words
human α7-nAChRs = target: T12, human α7-nAChRs (Homo sapiens, UniProt P36544); experiment: Whole-cell current recording, SH-EP1-hα7 cells; type: cell-based; details: 1 μmol/L
T12 construct: expressed in transfected cells; host or cells: SH-EP1 human epithelial cells (SH-EP1-hα7)
Procedure: Glass microelectrodes made with 3–5 MΩ resistance between pipette and extracellular solutions were used to obtain >1 GΩ seals on the cell surface just prior to conversion into standard whole-cell current recording mode by applying suction to the pipette. After allowing exchange between the pipette solution and the cytosol for 5 10 min, cells with attached pipettes were lifted gently from the bottom of the culture dish via micromanipulation of the pipette to improve kinetics of solution exchange around the cell. Access resistance (Ra) was measured and accepted if it was less than 20 MΩ. Pipette and whole-cell capacitance were both minimized, and series resistance was compensated routinely to 80%. Cells were voltage-clamped at −60 mV, and inward currents induced by indicated nicotinic agonists at the specified concentrations were measured (200B amplifier; Molecular Devices, Sunnyvale, CA). […] Data acquisition and analyses were conducted using pClamp9.2 (Molecular Devices), and results were plotted by using Origin 5.0 (OriginLab Corp., North Hampton, MA). All experiments were performed at room temperature (22 ± 1°C).
The external solution for SH-EP1 cell recording contained 120 mmol/L NaCl, 5 mmol/L KCl, 2 mmol/L MgCl2, 2 mmol/L CaCl2, 25 mmol/L D-glucose, and 10 mmol/L HEPES<< HEPES >>, pH 7.4 (Tris-base). For conventional whole-cell recording, the pipette solution contained 110 mmol/L Tris-phosphate dibasic, 28 mmol/L Tris-base, 11 mmol/L EGTA<< EGTA >>, 2 mmol/L MgCl2, 0.5 mmol/L CaCl2, and 4 mmol/L Na-ATP at pH 7.3. Drugs (standard compounds were obtained from Sigma Chemical, St. Louis, MO) were delivered to the recorded cell by a computer-controlled perfusion system (SF-77B Perfusion Fast Step, Warner Instruments Incorporated, A Harvard Bioscience Company, Holliston, MA), allowing the recorded cell can be completely surrounded by the applied drug within 20 msec. The interval between drug applications (2 min) was optimized specifically to ensure stability of nAChR responsiveness (without functional rundown).

T12 sequence (P36544 23-502): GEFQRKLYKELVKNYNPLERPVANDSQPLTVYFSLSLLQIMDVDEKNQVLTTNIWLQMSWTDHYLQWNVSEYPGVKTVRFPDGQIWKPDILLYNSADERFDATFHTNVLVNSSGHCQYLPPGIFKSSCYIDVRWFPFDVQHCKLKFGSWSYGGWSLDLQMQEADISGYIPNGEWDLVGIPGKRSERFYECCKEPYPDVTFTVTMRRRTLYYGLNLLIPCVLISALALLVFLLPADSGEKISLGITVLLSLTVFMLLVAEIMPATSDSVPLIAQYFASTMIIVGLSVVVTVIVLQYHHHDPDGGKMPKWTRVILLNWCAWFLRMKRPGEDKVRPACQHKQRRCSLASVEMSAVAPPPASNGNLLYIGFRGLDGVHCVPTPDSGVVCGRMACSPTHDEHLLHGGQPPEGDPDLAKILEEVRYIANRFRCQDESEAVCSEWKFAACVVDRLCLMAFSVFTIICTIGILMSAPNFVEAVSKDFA
T7 sequence (P08913 whole entry): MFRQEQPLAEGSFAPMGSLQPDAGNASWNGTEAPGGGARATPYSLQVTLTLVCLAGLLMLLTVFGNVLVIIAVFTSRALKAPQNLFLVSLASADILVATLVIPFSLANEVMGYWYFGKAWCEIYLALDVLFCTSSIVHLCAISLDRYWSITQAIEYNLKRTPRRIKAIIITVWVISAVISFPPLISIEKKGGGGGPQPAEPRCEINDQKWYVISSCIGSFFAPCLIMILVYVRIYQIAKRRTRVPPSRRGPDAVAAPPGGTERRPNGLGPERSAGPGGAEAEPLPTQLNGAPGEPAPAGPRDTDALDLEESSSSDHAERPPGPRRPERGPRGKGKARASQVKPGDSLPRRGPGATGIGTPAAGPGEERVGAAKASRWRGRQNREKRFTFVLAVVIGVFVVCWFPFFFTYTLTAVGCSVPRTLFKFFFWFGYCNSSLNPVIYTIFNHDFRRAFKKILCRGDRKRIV
T10 sequence (P21554 whole entry): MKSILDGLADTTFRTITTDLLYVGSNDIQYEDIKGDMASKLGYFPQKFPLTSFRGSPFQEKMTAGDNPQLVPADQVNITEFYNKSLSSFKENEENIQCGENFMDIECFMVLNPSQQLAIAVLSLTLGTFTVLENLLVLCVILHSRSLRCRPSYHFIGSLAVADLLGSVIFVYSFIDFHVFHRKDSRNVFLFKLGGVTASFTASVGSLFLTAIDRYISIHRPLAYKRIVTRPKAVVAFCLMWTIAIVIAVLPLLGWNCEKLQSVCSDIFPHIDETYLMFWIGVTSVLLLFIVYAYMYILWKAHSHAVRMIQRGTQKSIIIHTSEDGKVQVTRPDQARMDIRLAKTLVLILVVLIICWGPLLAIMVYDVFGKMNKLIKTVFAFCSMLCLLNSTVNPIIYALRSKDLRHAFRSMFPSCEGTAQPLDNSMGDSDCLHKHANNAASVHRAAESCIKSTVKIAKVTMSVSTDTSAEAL
T9 sequence (P25021 whole entry): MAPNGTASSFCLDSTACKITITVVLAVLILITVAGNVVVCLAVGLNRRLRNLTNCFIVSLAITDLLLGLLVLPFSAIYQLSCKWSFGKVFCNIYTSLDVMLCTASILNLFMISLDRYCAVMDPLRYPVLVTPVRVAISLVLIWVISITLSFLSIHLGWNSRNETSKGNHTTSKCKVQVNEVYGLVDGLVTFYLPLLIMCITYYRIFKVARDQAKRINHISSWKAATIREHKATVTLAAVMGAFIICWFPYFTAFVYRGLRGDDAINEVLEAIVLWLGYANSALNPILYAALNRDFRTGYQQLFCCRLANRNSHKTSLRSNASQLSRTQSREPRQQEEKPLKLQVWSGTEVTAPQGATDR
T3 sequence (P46098 24-478): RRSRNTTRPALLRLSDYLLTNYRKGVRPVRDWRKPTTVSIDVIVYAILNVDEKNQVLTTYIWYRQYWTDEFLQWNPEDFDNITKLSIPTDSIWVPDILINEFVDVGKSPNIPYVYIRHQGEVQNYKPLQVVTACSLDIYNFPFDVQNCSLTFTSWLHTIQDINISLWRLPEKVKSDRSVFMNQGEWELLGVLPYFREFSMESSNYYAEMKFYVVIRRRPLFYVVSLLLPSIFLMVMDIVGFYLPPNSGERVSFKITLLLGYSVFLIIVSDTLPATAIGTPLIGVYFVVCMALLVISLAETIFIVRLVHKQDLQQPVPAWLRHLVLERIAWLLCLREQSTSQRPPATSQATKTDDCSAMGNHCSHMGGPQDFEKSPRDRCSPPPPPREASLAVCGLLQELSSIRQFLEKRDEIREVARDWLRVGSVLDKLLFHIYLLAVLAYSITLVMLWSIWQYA
T8 sequence (P28221 whole entry): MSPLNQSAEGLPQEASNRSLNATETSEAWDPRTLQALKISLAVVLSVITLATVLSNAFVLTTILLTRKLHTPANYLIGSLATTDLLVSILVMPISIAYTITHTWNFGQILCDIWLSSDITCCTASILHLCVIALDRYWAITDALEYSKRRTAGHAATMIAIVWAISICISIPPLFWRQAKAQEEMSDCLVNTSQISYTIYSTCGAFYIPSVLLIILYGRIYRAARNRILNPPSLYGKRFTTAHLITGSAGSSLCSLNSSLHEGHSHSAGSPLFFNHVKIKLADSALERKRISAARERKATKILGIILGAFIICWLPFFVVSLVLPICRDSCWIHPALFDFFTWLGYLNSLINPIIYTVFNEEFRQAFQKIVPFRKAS
T1 sequence (P41145 whole entry): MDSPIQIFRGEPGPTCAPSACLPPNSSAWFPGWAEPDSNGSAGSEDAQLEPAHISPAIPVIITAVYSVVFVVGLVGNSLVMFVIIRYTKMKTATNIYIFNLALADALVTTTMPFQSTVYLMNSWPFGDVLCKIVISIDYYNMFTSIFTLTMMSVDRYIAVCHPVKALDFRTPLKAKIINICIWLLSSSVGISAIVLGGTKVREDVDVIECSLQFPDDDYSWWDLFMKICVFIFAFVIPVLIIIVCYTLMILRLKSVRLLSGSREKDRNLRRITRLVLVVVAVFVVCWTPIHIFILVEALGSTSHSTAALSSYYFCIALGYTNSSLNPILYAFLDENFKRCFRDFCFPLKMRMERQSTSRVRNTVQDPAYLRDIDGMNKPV
T2 sequence (P08912 whole entry): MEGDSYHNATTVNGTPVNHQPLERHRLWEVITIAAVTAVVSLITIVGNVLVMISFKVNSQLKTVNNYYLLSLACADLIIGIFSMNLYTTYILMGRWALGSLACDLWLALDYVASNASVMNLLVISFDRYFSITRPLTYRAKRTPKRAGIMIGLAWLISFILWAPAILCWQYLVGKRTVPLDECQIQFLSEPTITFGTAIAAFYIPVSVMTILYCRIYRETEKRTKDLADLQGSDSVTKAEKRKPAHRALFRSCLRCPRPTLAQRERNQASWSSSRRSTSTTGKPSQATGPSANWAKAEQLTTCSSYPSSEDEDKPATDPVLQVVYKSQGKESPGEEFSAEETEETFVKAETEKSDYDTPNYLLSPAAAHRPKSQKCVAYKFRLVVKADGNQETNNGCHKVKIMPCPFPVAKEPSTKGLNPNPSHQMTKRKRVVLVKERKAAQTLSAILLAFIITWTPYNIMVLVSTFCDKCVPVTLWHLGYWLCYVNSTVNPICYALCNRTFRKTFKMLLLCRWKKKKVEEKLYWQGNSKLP
T5 sequence (P23975 whole entry): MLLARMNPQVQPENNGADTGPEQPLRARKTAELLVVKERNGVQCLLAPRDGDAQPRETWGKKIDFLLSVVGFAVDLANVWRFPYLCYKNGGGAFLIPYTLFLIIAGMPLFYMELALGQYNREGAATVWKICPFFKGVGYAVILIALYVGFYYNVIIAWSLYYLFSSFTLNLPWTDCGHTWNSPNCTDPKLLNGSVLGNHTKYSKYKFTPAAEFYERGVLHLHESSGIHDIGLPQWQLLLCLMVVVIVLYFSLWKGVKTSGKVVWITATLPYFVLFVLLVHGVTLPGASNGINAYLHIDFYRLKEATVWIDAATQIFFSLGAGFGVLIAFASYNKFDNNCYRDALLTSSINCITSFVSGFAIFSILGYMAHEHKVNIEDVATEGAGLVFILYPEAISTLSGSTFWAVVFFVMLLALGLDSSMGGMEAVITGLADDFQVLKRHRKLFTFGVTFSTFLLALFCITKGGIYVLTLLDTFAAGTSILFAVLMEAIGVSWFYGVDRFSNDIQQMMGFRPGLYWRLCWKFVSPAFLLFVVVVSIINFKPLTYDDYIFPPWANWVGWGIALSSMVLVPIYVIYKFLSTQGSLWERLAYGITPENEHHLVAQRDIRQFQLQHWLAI
T11 sequence (P28566 whole entry): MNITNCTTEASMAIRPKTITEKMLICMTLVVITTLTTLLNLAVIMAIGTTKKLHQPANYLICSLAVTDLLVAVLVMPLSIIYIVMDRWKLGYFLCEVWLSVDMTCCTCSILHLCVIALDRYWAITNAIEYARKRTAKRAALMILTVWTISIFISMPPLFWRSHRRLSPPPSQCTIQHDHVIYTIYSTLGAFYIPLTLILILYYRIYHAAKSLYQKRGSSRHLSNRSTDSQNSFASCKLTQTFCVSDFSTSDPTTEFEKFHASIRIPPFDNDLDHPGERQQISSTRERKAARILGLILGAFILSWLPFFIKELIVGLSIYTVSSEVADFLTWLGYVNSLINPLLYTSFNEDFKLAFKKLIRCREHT
T4 sequence (P08908 whole entry): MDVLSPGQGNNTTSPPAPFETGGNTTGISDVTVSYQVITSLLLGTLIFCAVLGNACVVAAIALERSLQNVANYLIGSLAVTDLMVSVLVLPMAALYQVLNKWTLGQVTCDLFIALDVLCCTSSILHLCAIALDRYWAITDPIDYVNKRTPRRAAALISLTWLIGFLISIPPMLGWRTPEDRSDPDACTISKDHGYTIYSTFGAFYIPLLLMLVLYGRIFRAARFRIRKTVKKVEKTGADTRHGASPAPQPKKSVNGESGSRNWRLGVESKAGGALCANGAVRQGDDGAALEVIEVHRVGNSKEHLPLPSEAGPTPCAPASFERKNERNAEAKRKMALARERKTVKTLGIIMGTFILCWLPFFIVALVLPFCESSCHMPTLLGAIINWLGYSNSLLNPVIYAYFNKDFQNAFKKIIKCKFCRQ

**Q.** What does the source list for `OCCc1cc(-c2cncc(OC[C@@H]3CCN3)c2)on1` [LF-3-88, 2-[5-[5-(2(S)-azetidinylmethoxyl)-3-pyridyl]-3-isoxazolyl]ethanol]?
**A.** inhibition at 10 µM [1]: 3%; inhibition at 10 µM (M5 muscarinic receptor): -9.4%; inhibition at 10 µM (5-HT3): -1%; dose above which temperature and active behaviors temporarily decreased (C57/BL6J mice; acute): above 100 mg/kg; serious toxic side effects or mortality (C57/BL6J mice; up to 300 mg/kg): no serious toxic side effects or mortality; inhibition at 10 µM (5-HT1A): 4.2%; inhibition at 10 µM [2]: 0.4%; inhibition at 10 µM (5-HT2B): 7.9%; inhibition at 10 µM (α2A adrenergic receptor): 23.1%; Remaining (metabolic stability) [3]: 92%; inhibition at 10 µM (5-HT1D): -14.9%; inhibition at 10 µM (H2 histamine receptor): 39.5%; inhibition at 10 µM (CB1): 5.1%; inhibition at 10 µM (5-HT1E): -3%; pKi [4]: 7.81 to 9.22; inhibition toward five CYP450 enzymes [5]: No significant inhibition; agonist activity at α7-nAChRs (whole-cell) (human α7-nAChRs): no agonist activity; effect of coapplication with choline at α7-nAChRs (whole-cell) (human α7-nAChRs; 10 mmol/L choline): no effect; inhibition of activation by 10 mmol/L choline at α7-nAChRs (whole-cell) (human α7-nAChRs; 2-min pretreatment): slightly inhibit; also recorded: only weakly
